{"source": "paper doi:10.1101/2023.07.03.547578v2", "about": "(bioRxiv, 2023)", "key": {"[1]": {"system": "RyR2", "details": "ref Ohshiro et al., 2012; cited from earlier work"}, "[2]": {"system": "insect RyR", "details": "ref Ohshiro et al., 2012; cited from earlier work"}, "[3]": {"target": "T1, RyR2 (Sus scrofa, UniProt A0A5G2R1W3)", "T1 sequence (A0A5G2R1W3 20-4900)": "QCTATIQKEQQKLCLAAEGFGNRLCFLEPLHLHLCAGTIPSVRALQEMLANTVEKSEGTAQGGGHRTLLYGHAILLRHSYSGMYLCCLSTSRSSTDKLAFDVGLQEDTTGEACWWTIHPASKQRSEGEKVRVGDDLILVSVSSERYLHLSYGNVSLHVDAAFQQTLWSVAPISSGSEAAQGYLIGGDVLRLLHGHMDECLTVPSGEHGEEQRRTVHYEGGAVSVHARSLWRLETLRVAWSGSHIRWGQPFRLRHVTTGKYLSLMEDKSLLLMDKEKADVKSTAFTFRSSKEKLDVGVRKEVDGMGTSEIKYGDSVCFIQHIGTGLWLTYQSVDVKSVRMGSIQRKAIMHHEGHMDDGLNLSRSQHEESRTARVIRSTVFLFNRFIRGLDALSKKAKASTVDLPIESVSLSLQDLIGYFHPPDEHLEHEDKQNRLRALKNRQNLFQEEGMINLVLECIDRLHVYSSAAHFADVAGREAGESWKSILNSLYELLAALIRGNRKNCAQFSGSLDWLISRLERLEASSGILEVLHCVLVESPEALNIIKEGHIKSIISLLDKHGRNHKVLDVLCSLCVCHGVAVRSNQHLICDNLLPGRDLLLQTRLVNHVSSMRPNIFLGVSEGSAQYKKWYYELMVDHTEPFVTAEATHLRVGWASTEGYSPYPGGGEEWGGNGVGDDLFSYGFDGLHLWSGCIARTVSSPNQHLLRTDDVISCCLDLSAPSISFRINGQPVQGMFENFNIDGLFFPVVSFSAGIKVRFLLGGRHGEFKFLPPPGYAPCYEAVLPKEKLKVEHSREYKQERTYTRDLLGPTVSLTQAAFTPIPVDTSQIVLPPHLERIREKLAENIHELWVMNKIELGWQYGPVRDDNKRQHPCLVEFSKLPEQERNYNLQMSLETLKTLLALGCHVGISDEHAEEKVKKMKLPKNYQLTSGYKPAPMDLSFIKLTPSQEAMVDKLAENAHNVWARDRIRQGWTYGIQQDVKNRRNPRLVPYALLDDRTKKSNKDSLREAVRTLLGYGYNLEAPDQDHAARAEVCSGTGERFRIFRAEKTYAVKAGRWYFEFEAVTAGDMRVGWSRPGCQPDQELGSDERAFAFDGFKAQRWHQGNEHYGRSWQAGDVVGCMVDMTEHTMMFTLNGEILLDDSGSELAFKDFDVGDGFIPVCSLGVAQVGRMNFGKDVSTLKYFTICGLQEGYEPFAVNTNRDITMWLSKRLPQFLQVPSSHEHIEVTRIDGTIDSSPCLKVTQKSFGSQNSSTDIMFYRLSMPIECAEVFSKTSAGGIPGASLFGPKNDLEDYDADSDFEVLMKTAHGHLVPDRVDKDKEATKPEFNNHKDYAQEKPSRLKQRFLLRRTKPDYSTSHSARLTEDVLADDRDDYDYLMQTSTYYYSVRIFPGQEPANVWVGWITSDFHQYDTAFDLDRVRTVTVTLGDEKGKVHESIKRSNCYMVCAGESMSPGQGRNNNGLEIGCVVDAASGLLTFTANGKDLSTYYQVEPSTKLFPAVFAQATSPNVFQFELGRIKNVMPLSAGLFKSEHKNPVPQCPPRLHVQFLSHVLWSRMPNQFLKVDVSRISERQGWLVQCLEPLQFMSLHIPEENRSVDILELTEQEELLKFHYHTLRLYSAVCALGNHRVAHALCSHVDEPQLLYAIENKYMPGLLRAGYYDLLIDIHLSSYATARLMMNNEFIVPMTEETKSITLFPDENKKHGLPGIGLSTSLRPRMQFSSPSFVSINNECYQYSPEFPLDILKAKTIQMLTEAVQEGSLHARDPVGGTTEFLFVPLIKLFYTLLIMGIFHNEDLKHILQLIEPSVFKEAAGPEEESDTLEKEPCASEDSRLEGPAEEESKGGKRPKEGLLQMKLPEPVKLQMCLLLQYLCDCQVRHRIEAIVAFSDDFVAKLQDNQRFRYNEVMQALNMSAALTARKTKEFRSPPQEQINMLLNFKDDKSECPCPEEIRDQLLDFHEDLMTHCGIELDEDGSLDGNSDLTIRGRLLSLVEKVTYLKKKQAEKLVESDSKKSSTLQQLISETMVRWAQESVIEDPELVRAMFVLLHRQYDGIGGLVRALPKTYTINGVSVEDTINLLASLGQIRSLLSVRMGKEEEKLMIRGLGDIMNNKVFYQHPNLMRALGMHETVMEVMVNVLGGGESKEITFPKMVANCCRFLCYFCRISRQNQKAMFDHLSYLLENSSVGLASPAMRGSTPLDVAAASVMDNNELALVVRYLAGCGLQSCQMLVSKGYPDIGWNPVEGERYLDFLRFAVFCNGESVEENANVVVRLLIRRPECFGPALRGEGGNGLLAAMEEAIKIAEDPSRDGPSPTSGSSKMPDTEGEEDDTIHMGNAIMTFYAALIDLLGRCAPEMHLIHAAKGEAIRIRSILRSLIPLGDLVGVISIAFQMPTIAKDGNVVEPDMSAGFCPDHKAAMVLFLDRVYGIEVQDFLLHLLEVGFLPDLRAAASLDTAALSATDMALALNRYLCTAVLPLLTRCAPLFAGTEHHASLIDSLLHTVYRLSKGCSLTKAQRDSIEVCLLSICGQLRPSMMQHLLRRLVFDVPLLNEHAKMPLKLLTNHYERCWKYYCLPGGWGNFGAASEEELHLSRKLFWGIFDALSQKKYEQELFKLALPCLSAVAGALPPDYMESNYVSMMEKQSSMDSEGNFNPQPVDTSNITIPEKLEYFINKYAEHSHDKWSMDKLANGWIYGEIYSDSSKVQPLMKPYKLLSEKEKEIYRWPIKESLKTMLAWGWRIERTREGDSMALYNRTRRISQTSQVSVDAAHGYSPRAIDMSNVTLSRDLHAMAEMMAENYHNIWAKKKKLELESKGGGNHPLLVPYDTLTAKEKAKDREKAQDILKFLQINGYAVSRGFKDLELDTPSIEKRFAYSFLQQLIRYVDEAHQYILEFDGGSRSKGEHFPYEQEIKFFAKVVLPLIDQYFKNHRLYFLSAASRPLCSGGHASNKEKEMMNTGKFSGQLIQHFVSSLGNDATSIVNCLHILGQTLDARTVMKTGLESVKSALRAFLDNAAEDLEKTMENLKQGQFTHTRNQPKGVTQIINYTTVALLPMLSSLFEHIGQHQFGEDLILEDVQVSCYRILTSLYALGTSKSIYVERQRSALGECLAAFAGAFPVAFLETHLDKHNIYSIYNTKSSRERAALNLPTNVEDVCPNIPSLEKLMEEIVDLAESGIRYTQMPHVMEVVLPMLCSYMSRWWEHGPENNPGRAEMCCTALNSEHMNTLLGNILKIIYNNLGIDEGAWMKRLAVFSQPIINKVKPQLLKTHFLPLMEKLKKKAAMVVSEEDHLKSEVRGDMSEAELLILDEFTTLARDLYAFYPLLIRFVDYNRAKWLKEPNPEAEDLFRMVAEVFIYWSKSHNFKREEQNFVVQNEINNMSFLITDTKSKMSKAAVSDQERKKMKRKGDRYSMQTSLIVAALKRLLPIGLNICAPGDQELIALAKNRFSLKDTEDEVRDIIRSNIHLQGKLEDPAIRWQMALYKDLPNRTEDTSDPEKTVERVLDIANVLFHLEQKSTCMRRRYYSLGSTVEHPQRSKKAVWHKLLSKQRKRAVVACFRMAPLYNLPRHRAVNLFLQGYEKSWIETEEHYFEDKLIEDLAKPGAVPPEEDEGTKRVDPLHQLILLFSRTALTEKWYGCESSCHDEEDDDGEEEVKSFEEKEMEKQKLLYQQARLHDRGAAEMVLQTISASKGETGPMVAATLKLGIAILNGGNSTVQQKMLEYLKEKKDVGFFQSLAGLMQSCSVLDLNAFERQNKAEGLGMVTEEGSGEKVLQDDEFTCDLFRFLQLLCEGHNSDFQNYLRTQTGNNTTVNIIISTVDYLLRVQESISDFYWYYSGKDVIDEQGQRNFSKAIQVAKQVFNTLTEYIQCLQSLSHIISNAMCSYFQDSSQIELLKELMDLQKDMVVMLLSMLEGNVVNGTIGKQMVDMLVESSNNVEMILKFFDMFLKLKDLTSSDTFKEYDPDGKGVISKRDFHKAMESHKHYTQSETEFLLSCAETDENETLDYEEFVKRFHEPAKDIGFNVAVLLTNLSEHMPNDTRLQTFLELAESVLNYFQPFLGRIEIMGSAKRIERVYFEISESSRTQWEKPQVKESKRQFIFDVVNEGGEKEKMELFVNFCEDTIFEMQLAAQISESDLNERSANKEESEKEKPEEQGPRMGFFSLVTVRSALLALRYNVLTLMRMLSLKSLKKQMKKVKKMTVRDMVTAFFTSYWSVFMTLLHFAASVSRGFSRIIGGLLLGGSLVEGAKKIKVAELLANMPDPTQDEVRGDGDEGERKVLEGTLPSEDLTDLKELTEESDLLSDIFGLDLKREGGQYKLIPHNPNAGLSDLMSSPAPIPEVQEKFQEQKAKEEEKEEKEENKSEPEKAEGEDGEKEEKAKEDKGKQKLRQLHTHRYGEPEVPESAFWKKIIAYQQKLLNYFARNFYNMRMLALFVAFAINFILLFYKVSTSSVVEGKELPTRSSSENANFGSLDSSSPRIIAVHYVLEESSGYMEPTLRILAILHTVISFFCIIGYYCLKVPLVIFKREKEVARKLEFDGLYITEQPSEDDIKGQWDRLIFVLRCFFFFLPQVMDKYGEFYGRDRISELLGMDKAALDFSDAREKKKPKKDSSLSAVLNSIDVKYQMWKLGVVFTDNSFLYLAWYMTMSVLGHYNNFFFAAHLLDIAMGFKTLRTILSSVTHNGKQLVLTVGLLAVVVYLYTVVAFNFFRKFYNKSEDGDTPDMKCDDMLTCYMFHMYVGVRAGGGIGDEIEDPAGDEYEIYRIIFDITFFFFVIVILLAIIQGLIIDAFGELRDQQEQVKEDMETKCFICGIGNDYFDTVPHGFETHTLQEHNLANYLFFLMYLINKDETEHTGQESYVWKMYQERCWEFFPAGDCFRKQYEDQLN", "details": "read-out: IC50, ryanodine binding assay; ref Batiste et al., 2019; cited from earlier work"}, "[4]": {"system": "RyR2-mediated spontaneous Ca2+ release in Casq2-/- cardiomyocytes", "details": "read-out: IC50, intact cardiomyocyte assay; ref Batiste et al., 2019; cited from earlier work"}, "[5]": {"details": "mice; ref Blackwell et al., 2023; cited from earlier work"}, "[6]": {"system": "Casq2-/- mice", "details": "ref Blackwell et al., 2023, cited from earlier work"}, "[7]": {"target": "T1, RyR2", "experiment": "[3H]ryanodine binding assay in cardiac SR vesicles", "set-up": "species or system porcine"}, "[8]": {"experiment": "In vivo pharmacokinetic study", "set-up": "species or system mouse", "details": "3 mg/kg i.p."}, "[9]": {"system": "Casq2-/- mice", "experiment": "Catecholamine-induced arrhythmia challenge", "type": "in vivo, mouse", "details": "3 and 30 mg/kg i.p., ECG"}, "[10]": {"experiment": "Stability in plasma", "type": "in vitro ADME", "details": "abstract; method not given"}, "[11]": {"details": "ref Smith et al., 2021; cited from earlier work"}}, "note": "Where two headings read alike, the source gives them in different places."}
{"compound": "verticilide B1", "values": [{"measurement": "activity against RyR2", "setting": "[1]", "value": "not active"}, {"measurement": "activity against insect RyR", "setting": "[2]", "value": "not active"}]}
{"compound": "ent-(+)-verticilide [ent-1]", "values": [{"measurement": "IC50", "setting": "[3]", "value": 100, "unit": "nM"}, {"measurement": "IC50", "setting": "[4]", "value": 100, "unit": "nM"}, {"measurement": "half-life (t1/2)", "setting": "[5]", "value": 6.92, "unit": "h"}, {"measurement": "VT incidence", "setting": "[6]; 30 mg/kg, same arrhythmia induction protocol", "value": "~35", "unit": "%"}, {"measurement": "antiarrhythmic efficacy in vivo", "setting": "[6]; single dose study at 3 and 30 mg/kg i.p.", "value": "had antiarrhythmic efficacy"}]}
{"compound": "CCCCC[C@@H]1OC(=O)[C@@H](C)N(C)C(=O)[C@H](CCCCC)OC(=O)[C@@H](C)N(C)C(=O)[C@H](CCCCC)OC(=O)[C@@H](C)N(C)C1=O", "note": "(single isomer, unassigned) [ent-B1, ent-verticilide B1]", "values": [{"measurement": "IC50", "setting": "[7]", "value": 1930, "unit": "nM"}, {"measurement": "maximal inhibition of [3H]ryanodine binding", "setting": "[7]; incomplete maximal inhibition vs DMSO", "value": "approximately 30%"}, {"measurement": "clinical observation during the PK study", "setting": "[8]; CD1 mice, up to 480 min", "value": "no abnormality"}, {"measurement": "time of peak plasma concentration", "setting": "[8]; mice, plasma", "value": 10, "unit": "min"}, {"measurement": "elimination half-life (t1/2)", "setting": "[8]; mice, plasma, mean", "value": 0.757, "unit": "h"}, {"measurement": "QRS width", "setting": "[9]", "value": "No changes"}, {"measurement": "heart rate", "setting": "[9]", "value": "No changes"}, {"measurement": "stability in plasma", "setting": "[10]", "value": "stable"}, {"measurement": "lipophilicity relative to ent-1", "setting": "[11]", "value": "loss of lipophilicity"}]}
